Assay results reported in EP0515141A1, “Novel process for the preparation of 8A-aza-8A-homoerythromycin cyclic lactams” (MERCK & CO. INC., priority 1991, dated 1992).
Converted amounts (≈) assume the structure as drawn.

Key:
Experiment in all cases: liquid turbidimetric microtiter MIC assay
Format in all cases: cell-based
Escherichia coli MB 2884 = conditions: MB2884, brain heart infusion broth
Description: (§1) The antibacterial activities of compound (III) against a panel of aerobic Gram positive and negative bacteria is shown in the following Table. The assay employs a liquid turbidimetric microtiter method for the determination of the minimum inhibitory concentration (MIC) in brain heart infusion broth. […] The MIC is generally not an absolute value but rather a concentration ranged that falls within a two-fold dilution limit. Generally twelve two-fold dilutions of the test compound are employed with the initial concentration set at 128 mcg/ml.

Escherichia coli MB 4926 = conditions: MB4926, brain heart infusion broth
Description: as §1

[1] = test system: Pseudomonas stutzeri MB 1231; conditions: Stutzerimonas stutzeri, MB1231, brain heart infusion broth
Description: as §1

[2] = test system: Staphylococcus aureus MB 2865; conditions: MB2865, brain heart infusion broth
Description: as §1

[3] = test system: Enterococcus faecalis MB 5407; conditions: MB5407, brain heart infusion broth
Description: as §1

[4] = test system: Steptococcus viridans CL 2943; conditions: brain heart infusion broth
Description: as §1

[5] = test system: Yersinia enterocoltica CL 1598; conditions: CL1598, brain heart infusion broth
Description: as §1

[6] = test system: Streptococcus pyogenes MB 5406; conditions: MB5406, brain heart infusion broth
Description: as §1

[7] = test system: Enterococcus faecium MB 5416; conditions: MB5416, brain heart infusion broth
Description: as §1

[8] = test system: Streptococcus pyogenes MB 2874; conditions: MB2874, brain heart infusion broth
Description: as §1

[9] = test system: Streptococcus agalactiae CL 1343; conditions: CL1343, brain heart infusion broth
Description: as §1

[10] = test system: Klebsiella pneumoniae MB 4005; conditions: MB4005, brain heart infusion broth
Description: as §1

[11] = test system: Staphylococcus haemolyticus MB 5412; conditions: MB5412, brain heart infusion broth
Description: as §1

[12] = test system: Staphylococcus epidermidis MB 5414; conditions: MB5414, brain heart infusion broth
Description: as §1

[13] = test system: Streptococcus pneumoniae CL 2883; conditions: CL2883, brain heart infusion broth
Description: as §1

Work on CC[C@H]1OC(=O)[C@H](C)[C@@H](O[C@H]2C[C@@](C)(OC)[C@@H](O)[C@H](C)O2)[C@H](C)[C@@H](O[C@@H]2O[C@H](C)C[C@H](N(C)C)[C@H]2O)[C@](C)(O)C[C@@H](C)NC(=O)[C@H](C)[C@@H](O)[C@]1(C)O [(III), 8a-aza-8a-homoerythromycin A] yielded an MIC (Escherichia coli MB 2884) of 32 µg/mL (≈ 42.7 µM), an MIC (Escherichia coli MB 4926) of 4 µg/mL (≈ 5.34 µM) and an MIC [1] of 0.12 µg/mL (≈ 0.16 µM). It also gave an MIC [2] of 1 µg/mL (≈ 1.34 µM), an MIC [3] of 16 µg/mL (≈ 21.4 µM) and an MIC [4] of 4 µg/mL (≈ 5.34 µM). It also gave an MIC [5] of 64 µg/mL (≈ 85.5 µM), an MIC [6] of 128 µg/mL (≈ 171 µM) and an MIC [7] of at most 0.06 µg/mL. For the same compound, the MIC [8] was at most 0.06 µg/mL, the MIC [9] was 0.25 µg/mL (≈ 0.334 µM) and the MIC [10] was 64 µg/mL (≈ 85.5 µM). The MIC [11] was 2 µg/mL (≈ 2.67 µM), the MIC [12] was 2 µg/mL (≈ 2.67 µM) and the MIC [13] was at most 0.06 µg/mL.
